Assay results as given in US8497380B2, “Substituted acetophenones useful as PDE4 inhibitors” (Leo Pharma A/S, priority 2006, dated 2013).
pIC50: −log10 of the molar value.

Test system: Human peripheral blood mononuclear cells (PBMC)
Test: TNFalfa-Release
Format: cell-based
Conditions: inhibition of TNF-a secretion, PBMC pre-incubated 30 minutes, stimulated 18 hours with lipopolysaccharide
Method: Human peripheral blood mononuclear cells (PBMC) are Isolated from buffy coats. The blood is mixed with saline at a ratio of 1:1, and the PBMC is isolated by the use of Lymphoprep Tubes™ (Nycomed, Norway). The PBMC is suspended in RPMI1640 with 2% foetal calf serum (FCS), pen/strep and 2 mM L-glutamine at a concentration of 5×105 c/ml. The cells are pre-incubated for 30 minutes with the test compounds in 96 well tissue culture plates and stimulated for 18 hours with lipopolysaccharide 1 mg/ml (Sigma). The level of TNF-a is measured in the culture supernatant by enzyme immuno assays using primary and secondary biotinylated antibodies from R&D systems. Results are expressed as pIC50 values calculated from inhibition curves using as positive controls the secretion in LPS stimulated wells and as negative controls the secretion in unstimulated cells.

Question: `COc1ccc(C(=O)Cc2c(Cl)cncc2Cl)c(OCC(=O)N[C@H](C)c2ccccc2)c1OC` [Compound 221, (R)-2-{6-[2-(3,5-Dichloro-pyridin-4-yl)-acetyl]-2,3-dimethoxy-phenoxy}-N-(1-phenyl-ethyl)-acetamide] was tested. Which pIC50 did it give?
Answer: The pIC50 was over 6.00.

Question: How did the pIC50 turn out when `COc1ccc(C(=O)Cc2c(Cl)cncc2Cl)c(OCC(=O)NC[C@H](O)c2ccccc2)c1OC` [Compound 252, (R)-2-{6-[2-(3,5-Dichloro-pyridin-4-yl)-acetyl]-2,3-dimethoxy-phenoxy}-N-(2-hydroxy-2-phenyl-ethyl)-acetamide] was run?
Answer: The pIC50 was over 6.00.

Question: With `COc1ccc(C(=O)Cc2c(Cl)cncc2Cl)c(OCC(=O)NCc2ccccc2)c1OC` [Compound 203, N-Benzyl-2-{6-[2-(3,5-dichloro-pyridin-4-yl)-acetyl]-2,3-dimethoxy-phenoxy}-acetamide] as the compound, how does the pIC50 read?
Answer: The pIC50 was over 6.00.

Question: With `COc1ccc(C(=O)Cc2c(Cl)cncc2Cl)c(OCc2ccccc2C#N)c1OC` [Compound 147, 2-{6-[2-(3,5-Dichloro-pyridin-4-yl)-acetyl]-2,3-dimethoxy-phenoxymethyl}-benzonitrile] as the compound, how does the pIC50 read?
Answer: Its pIC50 is over 6.00.

Question: How did the pIC50 turn out when `CCOc1c(OC)ccc(C(=O)Cc2c(Cl)cncc2Cl)c1O` [Compound 262, 2-(3,5-Dichloro-pyridin-4-yl)-1-(3-ethoxy-2-hydroxy-4-methoxy-phenyl)-ethanone] was run?
Answer: Its pIC50 is over 6.00.

Question: With `COc1ccc(C(=O)Cc2c(Cl)cncc2Cl)c(OCC(=O)NCCCO)c1OC` [Compound 222, 2-{6-[2-(3,5-Dichloro-pyridin-4-yl)-acetyl]-2,3-dimethoxy-phenoxy}-N-(3-hydroxy-propyl)-acetamide] as the compound, how does the pIC50 read?
Answer: Its pIC50 is over 6.00.

Question: `C=CCCCOc1c(C(=O)Cc2c(Cl)cncc2Cl)ccc(OC)c1OC` [Compound 138, 2-(3,5-Dichloro-pyridin-4-yl)-1-(3,4-dimethoxy-2-pent-4-enyloxy-phenyl)-ethanone] was tested. Which pIC50 did it give?
Answer: Its pIC50 is over 6.00.

Question: How did the pIC50 turn out when `COc1ccc(C(=O)Cc2c(Cl)cncc2Cl)c(OCCOc2ccccc2)c1OC` [Compound 122, 2-(3,5-Dichloro-pyridin-4-yl)-1-[3,4-dimethoxy-2-(2-phenoxy-ethoxy)-phenyl]-ethanone] was run?
Answer: Its pIC50 is over 6.00.

Question: How did the pIC50 turn out when `COc1ccc(C(=O)Cc2c(Cl)cncc2Cl)c(OCCc2ccc(F)cc2)c1OC` [Compound 129, 2-(3,5-Dichloro-pyridin-4-yl)-1-{2-[2-(4-fluoro-phenyl)-ethoxy]-3,4-dimethoxy-phenyl}-ethanone] was run?
Answer: Its pIC50 is over 6.00.

Question: `COc1ccc(C(=O)Cc2c(Cl)cncc2Cl)c(OCC(=O)N(C)c2ccccc2)c1OC` [Compound 206, 2-{6-[2-(3,5-Dichloro-pyridin-4-yl)-acetyl]-2,3-dimethoxy-phenoxy}-N-methyl-N-phenyl-acetamide] was tested. Which pIC50 did it give?
Answer: The pIC50 was over 6.00.

Question: With `COc1ccc(C(=O)Cc2c(Cl)cncc2Cl)c(OCCC(C)C)c1OC` [Compound 135, 2-(3,5-Dichloro-pyridin-4-yl)-1-(3,4-dimethoxy-2-(3-methyl-butoxy)-phenyl)-ethanone] as the compound, how does the pIC50 read?
Answer: Its pIC50 is over 6.00.

Question: How did the pIC50 turn out when `COc1ccc(C(=O)Cc2c(Cl)cncc2Cl)c(OCCc2ccccc2F)c1OC` [Compound 130, 2-(3,5-Dichloro-pyridin-4-yl)-1-(2-[2-(2-fluoro-phenyl)-ethoxy)-3,4-dimethoxy-phenyl]-ethanone] was run?
Answer: The pIC50 was over 6.00.

Question: `COc1ccc(C(=O)Cc2c(Cl)cncc2Cl)c(OCC2CCCCC2)c1OC` [Compound 151, 1-(2-Cyclohexylmethoxy-3,4-dimethoxy-phenyl)-2-(3,5-dichloro-pyridin-4-yl)-ethanone] was tested. Which pIC50 did it give?
Answer: Its pIC50 is over 6.00.

Question: With `COc1ccc(C(=O)Cc2c(Cl)cncc2Cl)c(OCC(=O)NCc2ccco2)c1OC` [Compound 228, 2-{6-[2-(3,5-Dichloro-pyridin-4-yl)-acetyl]-2,3-dimethoxy-phenoxy}-N-furan-2-ylmethyl-acetamide] as the compound, how does the pIC50 read?
Answer: Its pIC50 is over 6.00.

Question: How did the pIC50 turn out when `C=CCOc1c(OC)ccc(C(=O)Cc2c(Cl)cncc2Cl)c1O` [Compound 266, 1-(3-Allyloxy-2-hydroxy-4-methoxy-phenyl)-2-(3,5-dichloro-pyridin-4-yl)-ethanone] was run?
Answer: The pIC50 was over 6.00.

Question: `COc1ccc(C(=O)Cc2c(Cl)cncc2Cl)c(OCc2nc3ccccc3o2)c1OC` [Compound 115, 1-[2-(Benzooxazol-2-ylmethoxy)-3,4-dimethoxy-phenyl]-2-(3,5-dichloro-pyridin-4-yl)-ethanone] was tested. Which pIC50 did it give?
Answer: Its pIC50 is over 6.00.

Question: `COc1ccc(C(=O)Cc2c(Cl)cncc2Cl)c(OCCc2cccnc2)c1OC` [Compound 280, 2-(3,5-Dichloro-pyridin-4-yl)-1-[3,4-dimethoxy-2-(2-pyridin-3-yl-ethoxy)-phenyl]-ethanone] was tested. Which pIC50 did it give?
Answer: Its pIC50 is over 6.00.

Question: With `CCCNC(=O)COc1c(C(=O)Cc2ccnc3ccccc23)ccc(OC)c1OC` [Compound 290] as the compound, how does the pIC50 read?
Answer: The pIC50 was over 6.00.

Question: How did the pIC50 turn out when `COc1ccccc1CCOc1c(C(=O)Cc2c(Cl)cncc2Cl)ccc(OC)c1OC` [Compound 128, 2-(3,5-Dichloro-pyridin-4-yl)-1-{3,4-dimethoxy-2-[2-(2-methoxy-phenyl)-ethoxy]-phenyl}-ethanone] was run?
Answer: Its pIC50 is over 6.00.

Question: `C=CCCOc1c(OC)ccc(C(=O)Cc2c(Cl)cncc2Cl)c1OCC=C` [Compound 190, 1-(2-Allyloxy-3-but-3-enyloxy-4-methoxy-phenyl)-2-(3,5-dichloro-pyridin-4-yl)-ethanone] was tested. Which pIC50 did it give?
Answer: Its pIC50 is over 6.00.

Question: How did the pIC50 turn out when `CCOc1c(OC)ccc(C(=O)Cc2c(Cl)cncc2Cl)c1OCC(=O)OCc1ccccc1` [Compound 265, {6-[2-(3,5-Dichloro-pyridin-4-yl)-acetyl]-2-ethoxy-3-methoxy-phenoxy}-acetic acid benzyl ester] was run?
Answer: Its pIC50 is over 6.00.

Question: How did the pIC50 turn out when `COc1ccc(C(=O)Cc2c(Cl)cncc2Cl)c(OCCc2ccc(C)cc2)c1OC` [Compound 123, 2-(3,5-Dichloro-pyridin-4-yl)-1-[3,4-dimethoxy-2-(2-p-tolyl-ethoxy)-phenyl]-ethanone] was run?
Answer: The pIC50 was over 6.00.

Question: With `COc1ccc(C(=O)Cc2c(Cl)cncc2Cl)c(OC(C)Cc2ccccc2)c1OC` (stereo not drawn) [Compound 285, 2-(3,5-Dichloro-pyridin-4-yl)-1-[3,4-dimethoxy-2-(1-methyl-2-phenyl-ethoxy)-phenyl]-ethanone] as the compound, how does the pIC50 read?
Answer: Its pIC50 is over 6.00.

Question: With `COc1ccc(C(=O)Cc2c(Cl)cncc2Cl)c(OCC(=O)NCCCN2CCCC2=O)c1OC` [Compound 255, 2-{6-[2-(3,5-Dichloro-pyridin-4-yl)-acetyl]-2,3-dimethoxy-phenoxy}-N-[3-(2-oxo-pyrrolidin-1-yl)-propyl]-acetamide] as the compound, how does the pIC50 read?
Answer: The pIC50 was over 6.00.

Question: `COc1ccc(C(=O)Cc2c(Cl)cncc2Cl)c(OCc2cccc(C(F)(F)F)c2)c1OC` [Compound 162, 2-(3,5-Dichloro-pyridin-4-yl)-1-[3,4-dimethoxy-2-(3-trifluoromethyl-benzyloxy)-phenyl]-ethanone] was tested. Which pIC50 did it give?
Answer: Its pIC50 is over 6.00.

Question: `COc1ccc(C(=O)Cc2c(Cl)cncc2Cl)c(O)c1OC1CCCC1` [Compound 260, 1-(3-Cyclopentyloxy-2-hydroxy-4-methoxy-phenyl)-2-(3,5-dichloro-pyridin-4-yl)-ethanone] was tested. Which pIC50 did it give?
Answer: The pIC50 was over 6.00.

Question: How did the pIC50 turn out when `COc1ccc(C(=O)Cc2c(Cl)cncc2Cl)c(OCC(C)c2ccccc2)c1OC` (stereo not drawn) [Compound 284, 2-(3,5-Dichloro-pyridin-4-yl)-1-[3,4-dimethoxy-2-(2-phenyl-propoxy)-phenyl]-ethanone] was run?
Answer: Its pIC50 is over 6.00.

Question: With `COc1ccc(C(=O)Cc2c(Cl)cncc2Cl)c(O)c1OC` [Compound 101, 2-(3,5-Dichloro-pyridin-4-yl)-1-(2-hydroxy-3,4-dimethoxy-phenyl)-ethanone] as the compound, how does the pIC50 read?
Answer: The pIC50 was over 6.00.

Question: How did the pIC50 turn out when `CCCNC(=O)COc1c(C(=O)Cc2ccncc2)ccc(OC)c1OC` [Compound 289, 2-(2,3-Dimethoxy-6-(2-pyridin-4-yl-acetyl)-phenoxy)-N-propyl-acetamide] was run?
Answer: Its pIC50 is over 6.00.

Question: With `COCCOc1c(C(=O)Cc2c(Cl)cncc2Cl)ccc(OC)c1OC` [Compound 109, 2-(3,5-Dichloro-pyridin-4-yl)-1-[3,4-dimethoxy-2-(2-methoxy-ethoxy)-phenyl]-ethanone] as the compound, how does the pIC50 read?
Answer: Its pIC50 is over 6.00.

Question: With `COc1ccc(C(=O)Cc2c(Cl)cncc2Cl)c(O)c1OCC1CC1` [Compound 261, 1-(3-Cyclopropylmethoxy-2-hydroxy-4-methoxy-phenyl)-2-(3,5-dichloro-pyridin-4-yl)-ethanone] as the compound, how does the pIC50 read?
Answer: The pIC50 was over 6.00.

Question: With `COc1ccc(C(=O)Cc2c(Cl)cncc2Cl)c(OCC(=O)NCC(C)(C)C)c1OC` [Compound 214] as the compound, how does the pIC50 read?
Answer: Its pIC50 is over 6.00.

Question: With `CCCNC(=O)COc1c(C(=O)Cc2c(Cl)cncc2Cl)ccc(OC)c1OC` [Compound 208, 2-{6-[2-(3,5-Dichloro-pyridin-4-yl)-acetyl]-2,3-dimethoxy-phenoxy}-N-propyl-acetamide] as the compound, how does the pIC50 read?
Answer: The pIC50 was over 6.00.

Question: `COc1ccc(C(=O)Cc2c(Cl)cncc2Cl)c(OCC(=O)NCc2ccccn2)c1OC` [Compound 229, 2-{6-[2-(3,5-Dichloro-pyridin-4-yl)-acetyl]-2,3-dimethoxy-phenoxy}-N-pyridin-2-ylmethyl-acetamide] was tested. Which pIC50 did it give?
Answer: Its pIC50 is over 6.00.

Question: How did the pIC50 turn out when `COc1ccc(C(=O)Cc2c(Cl)cncc2Cl)c(OCc2ccccc2OC(F)F)c1OC` [Compound 168, 2-(3,5-Dichloro-pyridin-4-yl)-1-[2-(2-difluoromethoxy-benzyloxy)-3,4-dimethoxy-phenyl]-ethanone] was run?
Answer: Its pIC50 is over 6.00.

Question: How did the pIC50 turn out when `CCOC(=O)COc1c(C(=O)Cc2c(Cl)cncc2Cl)ccc(OC)c1OC` [Compound 119, {6-[2-(3,5-Dichloro-pyridin-4-yl)-acetyl]-2,3-dimethoxy-phenoxy}-acetic acid ethyl ester] was run?
Answer: The pIC50 was over 6.00.

Question: With `COc1ccc(C(=O)Cc2c(Cl)cncc2Cl)c(OCC(C)C)c1OC` [Compound 141, 2-(3,5-Dichloro-pyridin-4-yl)-1-(2-isobutoxy-3,4-dimethoxy-phenyl)-ethanone] as the compound, how does the pIC50 read?
Answer: Its pIC50 is over 6.00.

Question: `COc1ccc(C(=O)Cc2c(Cl)cncc2Cl)c(OC)c1OCC1CC1` [Compound 189, 1-(3-Cyclopropylmethoxy-2,4-dimethoxy-phenyl)-2-(3,5-dichloro-pyridin-4-yl)-ethanone] was tested. Which pIC50 did it give?
Answer: The pIC50 was over 6.00.

Question: With `C=CCOc1c(OC)ccc(C(=O)Cc2c(Cl)cncc2Cl)c1OCCc1ccccc1` [Compound 268, 1-(3-Allyloxy-4-methoxy-2-phenethyloxy-phenyl)-2-(3,5-dichloro-pyridin-4-yl)-ethanone] as the compound, how does the pIC50 read?
Answer: Its pIC50 is over 6.00.
